{"source": "patent US11020358B2", "about": "“Method for the anti-senescence of and/or rejuvenating stem cells” (GWO XI STEM CELL APPLIED TECHNOLOGY CO., LTD., priority 2014, dated 2021)", "type_in_all_cases": "cell-based, human", "key": {"ADSCs [1]": {"tested_on": "ADSCs", "test": "Microarray analysis of gene expression in ADSCs", "conditions": "H2O2+TC6 group ADSCs, H2O2 group set as one fold; p < 0.05", "protocol": "Four portions of equal volume of the above culture medium containing the sub-cultured ADSCs were separately handled by adding thereinto H2O2 (purchased from Sigma-Aldrich) at a final concentration of 100 μM and reacting for 2 hours to induce senescence of the ADSCs, replacing the culture medium with a fresh culture medium, adding thereinto TC (trans-cinnamaldehyde, purchased from Sigma-Aldrich) at a final concentration of 0, 2, 4 or 6 μM and reacting for 6 hours, so as to obtain “H2O2 group (i.e., treated with H2O2 for 2 hours, but not treated with TC),” “H2O2+TC2 group (i.e., treated with H2O2 for 2 hours and then treated with 2 μM of TC for 6 hours),” “H2O2+TC4 group (i.e., treated with H2O2 for 2 hours and then treated with 4 μM of TC for 6 hours),” and “H2O2+TC6 group (i.e., treated with H2O2 for 2 hours and then treated with 6 μM of TC for 6 hours)” ADSCs. Each of the total cellular RNA of ADSCs of “H2O2 group” and “H2O2+TC6 group” from Experiment (3-1) was handled as follows. […] The products thus obtained are single strand cDNA of these genes. The cDNA was hybridized with a gene chip (Affymetrix GeneChip Human Genome U133 plus 2.0 Array, Affymetrix). Then, the gene chip was scanned and analyzed with a microarray scanner system (Gene Chip® Scanner 3000)."}, "ADSCs [2]": {"tested_on": "ADSCs", "test": "Semiquantitative RT-PCR of senescence, cell cycle and pluripotency genes in ADSCs", "protocol": "(§1) Four portions of equal volume of the above culture medium containing the sub-cultured ADSCs were separately handled by adding thereinto H2O2 (purchased from Sigma-Aldrich) at a final concentration of 100 μM and reacting for 2 hours to induce senescence of the ADSCs, replacing the culture medium with a fresh culture medium, adding thereinto TC (trans-cinnamaldehyde, purchased from Sigma-Aldrich) at a final concentration of 0, 2, 4 or 6 μM and reacting for 6 hours, so as to obtain “H2O2 group (i.e., treated with H2O2 for 2 hours, but not treated with TC),” “H2O2+TC2 group (i.e., treated with H2O2 for 2 hours and then treated with 2 μM of TC for 6 hours),” “H2O2+TC4 group (i.e., treated with H2O2 for 2 hours and then treated with 4 μM of TC for 6 hours),” and “H2O2+TC6 group (i.e., treated with H2O2 for 2 hours and then treated with 6 μM of TC for 6 hours)” ADSCs.\nThe total cellular RNA of the ADSCs, BMMSCs and WJSCs in each sample of the group obtained from Example 1 (1) were extracted with an RNeasy Mini kit (purchased from Qiagen), and then reverse transcribed into cDNA by a reverse transcription kit (RT Pre Mix, purchased from iNtRON Biotechnology).\nEach of the cDNA of the ADSCs of “untreated group,” “H2O2 group” and “H2O2+TC6 group” from Experiment (3-1) was handled as follows. […] The mixture was then placed in a revers transcription polymerase chain reaction (RT-PCR) machine. The RT-PCR reaction conditions were set as follows: i) 94° C. for 30 seconds, 55° C. for 30 seconds, and […] for 60 seconds, repeated for 30 cycles; ii) 72° C. for 10 minutes; and iii) cooling to 4° C. to stop the reaction. The RT-PCR product was analyzed by 2% agarose gel electrophoresis at a voltage of 100 volts for 30 minutes. Then, the gel was stained with ethidium bromide (EtBr) for 10 minutes, and photographed by a gel image documentation system (DOC PRINT DP-001FDC, VilberLourmat France)."}, "SIRT1 gene": {"tested_on": "SIRT1 gene", "test": "Quantitative RT-PCR of SIRT1 gene in ADSCs", "protocol": "as §1\nFive portions of equal volume of the above culture medium containing the sub-cultured ADSCs were separately handled by adding thereinto with H2O2 at a final concentration of 100 μM and reacting for 2 hours to induce senescence of the ADSCs. Then, the culture medium in each of the five portions was replaced with a fresh culture medium. The first portion was handed by adding thereinto TC at a final concentration of 6 μM and reacting for 6 hours to obtain “TC6H group” ADSCs. The second to fifth portions were handled by adding thereinto TC at a final concentration of 6 μM, reacting for 6 hours, and then transferring and incubating the ADSCs in DMEM for 12, 24, 48 and 72 hours respectively to obtain “TC12H group,” “TC24H group,” “TC48H group” and “TC72H group” ADSCs. […]\nEach of the cDNA of ADSCs of different groups from Experiment (3-1) was handled as follows. […] The mixture was then placed in a real-time quantitative PCR machine (ABI prism 7700 sequence detection system) to perform a reaction for quantifying the gene expression levels. […]"}, "[3]": {"conditions": "H2O2+TC6 group ADSCs compared to H2O2 group"}, "[4]": {"conditions": "H2O2 group ADSCs compared to untreated group"}}}
{"smiles": "O=C/C=C/c1ccccc1", "note": "[TC, trans-cinnamaldehyde]", "values": [{"measurement": "CCND1 gene expression level", "setting": "ADSCs [1]", "value": 5.8, "unit": "Folds"}, {"measurement": "E2F6 gene expression level", "setting": "ADSCs [1]", "value": 2.2, "unit": "Folds"}, {"measurement": "EIF5 gene expression level", "setting": "ADSCs [1]", "value": 3.4, "unit": "Folds"}, {"measurement": "GADD45B gene expression level", "setting": "ADSCs [1]", "value": "−4.6", "unit": "Folds"}, {"measurement": "NYFA gene expression level", "setting": "ADSCs [1]", "value": 7.2, "unit": "Folds"}, {"measurement": "PCNA gene expression level", "setting": "ADSCs [1]", "value": 2, "unit": "Folds"}, {"measurement": "PIM1 gene expression level", "setting": "ADSCs [1]", "value": "−4.4", "unit": "Folds"}, {"measurement": "POLR3H gene expression level", "setting": "ADSCs [1]", "value": 2.2, "unit": "Folds"}, {"measurement": "SIRT1 gene expression level", "setting": "ADSCs [1]", "value": 2.4, "unit": "Folds"}, {"measurement": "hTERT gene expression level", "setting": "ADSCs [1]", "value": 2, "unit": "Folds"}, {"measurement": "p16 gene expression level", "setting": "ADSCs [1]", "value": "−1.8", "unit": "Folds"}, {"measurement": "p53 gene expression level", "setting": "ADSCs [1]", "value": "−1", "unit": "Folds"}, {"measurement": "expression level of the NANOG gene (semiquantitative RT-PCR)", "setting": "ADSCs [2]; [3]", "value": "did not show significant difference"}, {"measurement": "expression level of the OCT4 gene (semiquantitative RT-PCR)", "setting": "ADSCs [2]; [3]", "value": "did not show significant difference"}, {"measurement": "expression level of the SIRT1 gene (semiquantitative RT-PCR)", "setting": "ADSCs [2]; [3]", "value": "significantly increased"}, {"measurement": "expression level of the p21 gene (semiquantitative RT-PCR)", "setting": "ADSCs [2]; [3]", "value": "significantly decreased"}, {"measurement": "expression level of the p53 gene (semiquantitative RT-PCR)", "setting": "ADSCs [2]; [3]", "value": "significantly decreased"}, {"measurement": "expression levels of SIRT1 gene (quantitative RT-PCR)", "setting": "SIRT1 gene; ADSCs treated only with 2, 4 and 6 μM TC 6 h (FIG. 5A)", "value": "significantly increased along with the increment in the concentration of TC"}, {"measurement": "time for which the effect of TC on increasing SIRT1 gene expression is maintained", "setting": "SIRT1 gene; H2O2-senescent ADSCs, 6 μM TC 6 h, then incubated in DMEM 12-72 h, no significant difference to TC6H group", "value": "at least 72 hours"}, {"measurement": "expression levels of SIRT1 gene (quantitative RT-PCR)", "setting": "SIRT1 gene; H2O2-senescent ADSCs, 2, 4 and 6 μM TC 6 h, compared to H2O2 group (FIG. 5B)", "value": "significantly increased along with the increment in the concentration of TC"}]}
{"smiles": "OO", "note": "[H2O2, reference compound]", "values": [{"measurement": "expression level of the SIRT1 gene (semiquantitative RT-PCR)", "setting": "ADSCs [2]; [4]", "value": "significantly decreased"}, {"measurement": "expression level of the p21 gene (semiquantitative RT-PCR)", "setting": "ADSCs [2]; [4]", "value": "significantly increased"}, {"measurement": "expression level of the p53 gene (semiquantitative RT-PCR)", "setting": "ADSCs [2]; [4]", "value": "significantly increased"}]}
